In patent USRE48461E1, “Modulation of androgen receptor expression” (Ionis Pharmaceuticals, Inc., priority 2012, dated 2021):

Legend:
Type in all cases: cell-based, human
PSA mRNA [1] = test: PSA expression in LNCaP cells (complete, CSS+DHT medium); conditions: for Percent inhibition of PSA expression in LNCaP cells cultured in CSS + DHT medium: CSS + DHT (1 nM) medium, 48 hrs; for Percent inhibition of PSA expression in LNCaP cells cultured in complete medium: 48 hours
Experimental: Cells were plated at 1,000 cells per well. […] ISIS 549148 was included as a negative control. […] After an incubation period of 48 hours, RNA levels of AR, PSA and TMPRSS2 were measured.
Cells were plated at 2,000 cells per well and cultured in phenol red-free RPMI supplemented with 5% charcoal stripped serum (Gibco) media for 16 hours. […] ISIS 549148 was included as a negative control. […] After an incubation period of 4 hrs, DHT was added to the medium to a final concentration of 1 nM as indicated. RNAs were collected 48 hrs later and levels of AR, PSA and TMPRSS2 were measured. In the absence of DHT, AR expression in LNCaP cells was 95%, PSA expression was 7% and TMPRSS2 expression was 24% compared to the untreated control.

AR V7 variant mRNA = test: AR V7 variant RNA in 22RV1 cells; conditions: 48 hrs
C4-2 cells = test: C4-2 cell proliferation (complete or CSS+DHT medium); conditions: 5 days; for Proliferation (% untreated control): C4-2 cells
Experimental: After a treatment period of 5 days in complete medium or CSS+1 nM DHT medium, the proliferative capacity of the cancer cells was measured with using CellTiter 96® AQueous One Solution or CellTiter-Glo® Cell Proliferation kit (Promega), following the manufacturer's instructions. […] The proliferative capacity of cells cultured in CSS medium without DHT is 17% of untreated control levels.

AR mRNA = test: AR RNA expression in LNCaP cells (complete, CSS, CSS+DHT medium); conditions: for Percent expression of AR in LNCaP cells cultured in CSS + DHT medium: CSS + DHT (1 nM) medium; for Percent expression of AR in LNCaP cells cultured in CSS + DHT medium / Percent expression of AR in LNCaP cells cultured in CSS medium: 48 hrs; for Percent expression of AR in LNCaP cells cultured in complete medium: 48 hours
Experimental: Cells were plated at 1,000 cells per well. […] After an incubation period of 48 hours, RNA levels of AR, PSA and TMPRSS2 were measured.
Cells were plated at 2,000 cells per well and cultured in phenol red-free RPMI supplemented with 5% charcoal stripped serum (Gibco) media for 16 hours. […] After an incubation period of 4 hrs, DHT was added to the medium to a final concentration of 1 nM as indicated. RNAs were collected 48 hrs later and levels of AR, PSA and TMPRSS2 were measured.

PSA mRNA [2] = test: PSA expression in C4-2 cells; conditions: 48 hrs; for Percent inhibition of PSA expression: C4-2 cells, CSS + DHT medium
Experimental: Cells were plated at 1,000 cells per well. […] After an incubation period of 48 hrs, RNA levels of AR, PSA and TMPRSS2 were measured.
Cells were plated at 2,000 cells per well and cultured in CSS media with 1 nM DHT. […] After an incubation period of 48 hrs, RNA levels of AR, PSA and TMPRSS2 were measured.

PSA mRNA [3] = test: PSA expression in 22RV1 cells; conditions: 48 hrs
Experimental: Cells were plated at 1,000 cells per well. […] After an incubation period of 48 hrs, RNA levels of full length AR, the V7 variant, PSA and TMPRSS2 were measured.
After an incubation period of 48 hrs, RNA levels of full length AR, the V7 variant, PSA and TMPRSS2 were measured.
Cells were plated at 2,000 cells per well and cultured in CSS media for 16 hours. […] After 4 hrs, 1 nM DHT was added. […] After an incubation period of 48 hrs, RNA levels of AR, AR V7 variant, PSA and TMPRSS2 were measured.

TMPRSS2 mRNA = test: TMPRSS2 expression in VCaP cells; conditions: 48 hrs
Experimental: Cells were plated at 10,000 cells per well. […] After an incubation period of 48 hrs, RNA levels of full length AR, the V7 variant, PSA and TMPRSS2 were measured.
After an incubation period of 48 hrs, RNA levels of full length AR, the V7 variant, PSA and TMPRSS2 were measured. The data is presented in Tables 108 expressed as percent expression of gene levels compared to the untreated control.
Cells were plated at 15,000 cells per well and cultured in CSS media for 16 hours. […] After 4 hrs, 1 nM DHT was added. […] After an incubation period of 48 hrs, RNA levels of AR, PSA and TMPRSS2 were measured.

## CNC(=O)c1ccc(N2C(=S)N(c3ccc(C#N)c(C(F)(F)F)c3)C(=O)C2(C)C)cc1F [MDV3100, 4-(3-(4-cyano-3-(trifluoromethyl)phenyl)-5,5-dimethyl-4-oxo-2-thioxoimidazolidin-1-yl)-2-fluoro-N-methylbenzamide, reference compound]
PSA mRNA [1]; 0.04 μM
  Percent inhibition of PSA expression in LNCaP cells cultured in CSS + DHT medium: 15%
  Percent inhibition of PSA expression in LNCaP cells cultured in complete medium: 0%
PSA mRNA [1]; 0.2 μM
  Percent inhibition of PSA expression in LNCaP cells cultured in CSS + DHT medium: 38%
  Percent inhibition of PSA expression in LNCaP cells cultured in complete medium: 35%
PSA mRNA [1]; 1 μM
  Percent inhibition of PSA expression in LNCaP cells cultured in CSS + DHT medium: 81%
  Percent inhibition of PSA expression in LNCaP cells cultured in complete medium: 84%
PSA mRNA [1]; 5.0 μM
  Percent inhibition of PSA expression in LNCaP cells cultured in CSS + DHT medium: 82%
  Percent inhibition of PSA expression in LNCaP cells cultured in complete medium: 87%
AR V7 variant mRNA; CSS + DHT medium, 0.04 μM
  Percent of gene expression, AR V7 variant: 16%
AR V7 variant mRNA; CSS + DHT medium, 0.2 μM
  Percent of gene expression, AR V7 variant: 17%
AR V7 variant mRNA; CSS + DHT medium, 1.0 μM
  Percent of gene expression, AR V7 variant: 19%
AR V7 variant mRNA; CSS + DHT medium, 5.0 μM
  Percent of gene expression, AR V7 variant: 12%
AR V7 variant mRNA; complete medium, 0.04 μM
  Percent of gene expression, AR V7 variant: 106%
AR V7 variant mRNA; complete medium, 0.2 μM
  Percent of gene expression, AR V7 variant: 98%
AR V7 variant mRNA; complete medium, 1.0 μM
  Percent of gene expression, AR V7 variant: 87%
AR V7 variant mRNA; complete medium, 5.0 μM
  Percent of gene expression, AR V7 variant: 77%
C4-2 cells; CSS + DHT medium, 0.04 μM
  Proliferation (% untreated control): 122 % untreated control
C4-2 cells; CSS + DHT medium, 0.2 μM
  Proliferation (% untreated control): 124 % untreated control
C4-2 cells; CSS + DHT medium, 1 μM
  Proliferation (% untreated control): 87 % untreated control
C4-2 cells; CSS + DHT medium, 5.0 μM
  Proliferation (% untreated control): 22 % untreated control
C4-2 cells; complete medium, 0.04 μM
  Proliferation (% untreated control): 105 % untreated control
C4-2 cells; complete medium, 0.2 μM
  Proliferation (% untreated control): 108 % untreated control
C4-2 cells; complete medium, 1 μM
  Proliferation (% untreated control): 71 % untreated control
C4-2 cells; complete medium, 5.0 μM
  Proliferation (% untreated control): 67 % untreated control
C4-2 cells; complete medium or CSS+1 nM DHT
  proliferation of C4-2 cells: reduced proliferation of the cells in a dose dependent manner compared to the control
AR mRNA; 0.04 μM
  Percent expression of AR in LNCaP cells cultured in CSS + DHT medium: 107%
  Percent expression of AR in LNCaP cells cultured in CSS medium: 91%
AR mRNA; 0.2 μM
  Percent expression of AR in LNCaP cells cultured in CSS + DHT medium: 121%
  Percent expression of AR in LNCaP cells cultured in CSS medium: 67%
  Percent expression of AR in LNCaP cells cultured in complete medium: 133%
AR mRNA; 1 μM
  Percent expression of AR in LNCaP cells cultured in CSS + DHT medium: 110%
  Percent expression of AR in LNCaP cells cultured in CSS medium: 64%
  Percent expression of AR in LNCaP cells cultured in complete medium: 121%
AR mRNA; 5.0 μM
  Percent expression of AR in LNCaP cells cultured in CSS + DHT medium: 113%
  Percent expression of AR in LNCaP cells cultured in CSS medium: 77%
  Percent expression of AR in LNCaP cells cultured in complete medium: 139%
PSA mRNA [2]; 0.04 μM
  Percent inhibition of PSA expression: 9%
  Percent inhibition of PSA expression in C4-2 cells cultured in complete medium: 28%
PSA mRNA [2]; 0.2 μM
  Percent inhibition of PSA expression: 8%
  Percent inhibition of PSA expression in C4-2 cells cultured in complete medium: 40%
PSA mRNA [2]; 1 μM
  Percent inhibition of PSA expression: 51%
  Percent inhibition of PSA expression in C4-2 cells cultured in complete medium: 72%
PSA mRNA [2]; 5.0 μM
  Percent inhibition of PSA expression: 73%
  Percent inhibition of PSA expression in C4-2 cells cultured in complete medium: 89%
PSA mRNA [3]; CSS + DHT medium, 0.04 μM
  Percent of gene expression, PSA: 15%
PSA mRNA [3]; CSS + DHT medium, 0.2 μM
  Percent of gene expression, PSA: 19%
PSA mRNA [3]; CSS + DHT medium, 1.0 μM
  Percent of gene expression, PSA: 18%
PSA mRNA [3]; CSS + DHT medium, 5.0 μM
  Percent of gene expression, PSA: 16%
PSA mRNA [3]; complete medium, 0.04 μM
  Percent of gene expression, PSA: 83%
PSA mRNA [3]; complete medium, 0.2 μM
  Percent of gene expression, PSA: 70%
PSA mRNA [3]; complete medium, 1.0 μM
  Percent of gene expression, PSA: 71%
PSA mRNA [3]; complete medium, 5.0 μM
  Percent of gene expression, PSA: 86%
TMPRSS2 mRNA; CSS + DHT medium, 0.04 μM
  Percent of gene expression, TMPRSS2: 115%
TMPRSS2 mRNA; CSS + DHT medium, 0.2 μM
  Percent of gene expression, TMPRSS2: 96%
TMPRSS2 mRNA; CSS + DHT medium, 1.0 μM
  Percent of gene expression, TMPRSS2: 70%
TMPRSS2 mRNA; CSS + DHT medium, 5.0 μM
  Percent of gene expression, TMPRSS2: 42%
TMPRSS2 mRNA; complete medium, 0.04 μM
  Percent of gene expression, TMPRSS2: 131%
TMPRSS2 mRNA; complete medium, 0.2 μM
  Percent of gene expression, TMPRSS2: 121%
TMPRSS2 mRNA; complete medium, 5.0 μM
  Percent of gene expression, TMPRSS2: 141%
